Consider 22 molecules from publication PMC7036909, “Discovery of Selective SIRT2 Inhibitors as Therapeutic Agents in B-Cell Lymphoma and Other Malignancies” (Molecules, 2020).

The target of one test is T1, SIRT1 (Homo sapiens, UniProt Q96EB6).
T1 sequence (Q96EB6 1-747): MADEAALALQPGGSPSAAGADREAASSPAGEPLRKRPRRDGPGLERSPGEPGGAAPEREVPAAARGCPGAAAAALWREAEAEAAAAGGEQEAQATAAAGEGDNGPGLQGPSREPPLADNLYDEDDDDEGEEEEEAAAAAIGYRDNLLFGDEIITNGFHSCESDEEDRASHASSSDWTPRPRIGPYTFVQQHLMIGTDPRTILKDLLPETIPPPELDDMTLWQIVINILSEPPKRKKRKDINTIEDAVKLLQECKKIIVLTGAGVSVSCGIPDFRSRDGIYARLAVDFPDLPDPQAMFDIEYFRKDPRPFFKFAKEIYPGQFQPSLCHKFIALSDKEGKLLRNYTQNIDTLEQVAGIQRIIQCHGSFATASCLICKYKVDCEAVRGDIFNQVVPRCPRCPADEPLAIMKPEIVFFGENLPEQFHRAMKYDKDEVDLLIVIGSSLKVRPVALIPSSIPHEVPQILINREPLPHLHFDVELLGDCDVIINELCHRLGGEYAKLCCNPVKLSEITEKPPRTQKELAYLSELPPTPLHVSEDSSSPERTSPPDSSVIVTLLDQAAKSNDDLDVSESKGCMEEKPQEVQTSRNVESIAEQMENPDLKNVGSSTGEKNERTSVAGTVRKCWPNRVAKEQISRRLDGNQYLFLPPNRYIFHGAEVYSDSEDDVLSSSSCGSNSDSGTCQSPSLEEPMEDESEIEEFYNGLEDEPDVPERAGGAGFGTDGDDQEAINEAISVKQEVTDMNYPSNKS
Kind of test: SIRT-Glo enzyme inhibition assay, SIRT1. The following applies: for inhibition at 50 µM: read-out: SIRT1 percentage inhibition at 50 µM compound, 50 µM compound.

Another test deals with T2, SIRT2 (Homo sapiens, UniProt Q8IXJ6).
T2 sequence (Q8IXJ6 1-389): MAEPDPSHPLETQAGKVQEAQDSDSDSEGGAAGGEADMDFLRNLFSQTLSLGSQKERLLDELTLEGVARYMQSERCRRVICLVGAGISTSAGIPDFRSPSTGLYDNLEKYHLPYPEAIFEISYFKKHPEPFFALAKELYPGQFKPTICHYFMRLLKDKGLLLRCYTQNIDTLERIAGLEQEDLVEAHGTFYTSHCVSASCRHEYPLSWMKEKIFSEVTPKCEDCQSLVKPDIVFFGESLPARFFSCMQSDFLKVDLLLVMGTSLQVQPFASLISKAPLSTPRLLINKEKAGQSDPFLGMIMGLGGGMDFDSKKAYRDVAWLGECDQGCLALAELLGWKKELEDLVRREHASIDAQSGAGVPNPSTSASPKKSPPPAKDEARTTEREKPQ
Kind of test: SIRT-Glo enzyme inhibition assay, SIRT2. The following applies: for IC50: SIRT2 IC50; for inhibition at 50 µM: read-out: SIRT2 percentage inhibition at 50 µM compound, 50 µM compound.

The next test concerns the target T3, SIRT3 (Homo sapiens, UniProt Q9NTG7).
T3 sequence (Q9NTG7 1-399): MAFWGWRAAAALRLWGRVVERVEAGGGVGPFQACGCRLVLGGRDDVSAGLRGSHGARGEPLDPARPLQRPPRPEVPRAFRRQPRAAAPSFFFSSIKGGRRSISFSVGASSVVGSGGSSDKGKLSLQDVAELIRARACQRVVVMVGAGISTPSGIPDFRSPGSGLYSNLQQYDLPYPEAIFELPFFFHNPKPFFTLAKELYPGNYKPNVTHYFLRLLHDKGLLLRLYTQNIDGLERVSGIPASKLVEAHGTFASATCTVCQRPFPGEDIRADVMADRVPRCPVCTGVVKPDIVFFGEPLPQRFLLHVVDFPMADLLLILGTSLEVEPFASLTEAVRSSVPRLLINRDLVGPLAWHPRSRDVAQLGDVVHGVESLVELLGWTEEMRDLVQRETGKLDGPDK
Kind of test: SIRT-Glo enzyme inhibition assay, SIRT3. As to conditions: read-out: SIRT3 percentage inhibition at 50 µM compound, 50 µM compound.

Experimental for SIRT1: (§1) SIRT1, SIRT2, and SIRT3 were purchased from Cayman Chemical. Enzyme inhibition assays were performed in 96-well black plates using the SIRT-Glo Assay (Promega Corp.) according to the manufacturer’s instructions. Compounds were dissolved in 100% DMSO and to make 5- or 10-mM stock solutions. For initial enzyme inhibition tests, 50 µM of inhibitory concentration was used. […] IC50 values were determined in triplicate and reported values are averages of two independent experiments.
Experimental for SIRT2: as §1
Experimental for SIRT3: as §1

As to “2-[(6-Bromo-2-hydroxynaphthalen-1-yl)methyl]-1-[4-(trifluoromethyl)phenyl]hex-5-yne-1,3-dione [Compound 46]”, the “SIRT1 percentage inhibition at 50 µM compound” value at SIRT1 is 28%. Besides, the “SIRT2 percentage inhibition at 50 µM compound” value at SIRT2 was 88%.
For “2-[(6-Bromo-2-hydroxynaphthalen-1-yl)methyl]-3-(3-bromophenyl)-N-(furan-3-ylmethyl)-3-oxopropanamide [Compound 39]” the same measures were 13% and 30%.
Turning to “2-[(6-Bromo-2-hydroxynaphthalen-1-yl)methyl]-3-(4-acetamidophenyl)-3-oxopropanamide [Compound 28]”, the “SIRT1 percentage inhibition at 50 µM compound” value on SIRT1 worked out at 0.0%. For the same molecule, the “SIRT2 percentage inhibition at 50 µM compound” value on SIRT2 was 58%.
Consider `Cc1ccc(C(=O)C(Cc2c(O)ccc3cc(Br)ccc23)C(N)=O)cc1` (stereo not drawn) [Compound 4, 2-[(6-Bromo-2-hydroxynaphthalen-1-yl)methyl]-3-(4-methylphenyl)-3-oxopropanamide], for which the IC50 at SIRT1 is more than 200 µM; on SIRT2, 13 µM. In addition, the values for the inhibition at 50 µM on SIRT1 and on SIRT2 were 9% and 89%, respectively.
Take `Cc1cccc(C(=O)C(Cc2c(O)ccc3cc(Br)ccc23)C(N)=O)c1` (stereo not drawn) [Compound 16, 2-[(6-Bromo-2-hydroxynaphthalen-1-yl)methyl]-3-(3-methylphenyl)-3-oxopropanamide]: the inhibition at 50 µM worked out at 38% on SIRT1 and 70% at SIRT2.
Regarding `Cc1ccccc1C(=O)C(Cc1c(O)ccc2cc(Br)ccc12)C(N)=O` (stereo not drawn) [Compound 17, 2-[(6-Bromo-2-hydroxynaphthalen-1-yl)methyl]-3-(2-methylphenyl)-3-oxopropanamide], the inhibition at 50 µM on SIRT1 was 0%; at SIRT2, 3%.
Regarding `NC(=O)C(Cc1c(O)ccc2cc(Br)ccc12)C(=O)c1ccccc1` (stereo not drawn) [Compound 18, 2-[(6-Bromo-2-hydroxynaphthalen-1-yl)methyl]-3-oxo-3-phenylpropanamide], the inhibition at 50 µM on SIRT1 is 0%; at SIRT2 it was 57%.
For the molecule `NC(=O)C(Cc1c(O)ccc2cc(Br)ccc12)C(=O)c1ccc(C(F)(F)F)cc1` (stereo not drawn) [Compound 20, 2-[(6-Bromo-2-hydroxynaphthalen-1-yl)methyl]-3-(4-trifluoromethylphenyl)-3-oxopropanamide], the inhibition at 50 µM on SIRT1 came out at 0%; at SIRT3, 5%; on SIRT2, 100%. The molecule further displayed a half-maximal inhibitory concentration (IC50) at SIRT2 of 1.9 µM.
For `NC(=O)C(Cc1c(O)ccc2cc(Br)ccc12)C(=O)c1cccc(C(F)(F)F)c1` (stereo not drawn) [Compound 21, 2-[(6-Bromo-2-hydroxynaphthalen-1-yl)methyl]-3-(3-trifluoromethylphenyl)-3-oxopropanamide] the same measures were 0%, 15%, 89% and 12.6 µM.
The like results for `NC(=O)C(Cc1c(O)ccc2cc(Br)ccc12)C(=O)c1cccc(Br)c1` (stereo not drawn) [Compound 23, 2-[(6-Bromo-2-hydroxynaphthalen-1-yl)methyl]-3-(3-bromo)-3-oxopropanamide] were, in that order, 53%, 41%, 91% and 8.95 µM.
For the molecule `COc1ccc(C(=O)C(Cc2c(O)ccc3cc(Br)ccc23)C(N)=O)cc1` (stereo not drawn) [Compound 24, 2-[(6-Bromo-2-hydroxynaphthalen-1-yl)methyl]-3-(4-methoxy)-3-oxopropanamide], the inhibition at 50 µM stood at 34% on SIRT1 and 72% on SIRT2.
Take `NC(=O)C(Cc1c(O)ccc2cc(Br)ccc12)C(=O)c1ccc(F)cc1` (stereo not drawn) [Compound 25, 2-[(6-Bromo-2-hydroxynaphthalen-1-yl)methyl]-3-(4-fluoro)-3-oxopropanamide]: the results for the inhibition at 50 µM at SIRT1, at SIRT3 and at SIRT2 were 35%, 39% and 96%, respectively. Besides, at SIRT2, the 50% inhibitory concentration (IC50) was 12.4 µM.
On to `NC(=O)C(Cc1c(O)ccc2ccccc12)C(=O)c1cccc(Br)c1` (stereo not drawn) [Compound 29, 3-(3-Bromophenyl)-2-[(2-hydroxynaphthalen-1-yl)methyl]-3-oxopropanamide], for which the inhibition at 50 µM on SIRT1 was determined as 12%; on SIRT2, 14%.
Turning to `COc1ccc2c(CC(C(N)=O)C(=O)c3cccc(Br)c3)c(O)ccc2c1` (stereo not drawn) [Compound 30, 3-(3-Bromophenyl)-2-[(2-hydroxy-6-methoxynaphthalen-1-yl)methyl]-3-oxopropanamide], the inhibition at 50 µM amounted to 0% on SIRT1 and 32% at SIRT2.
The like results for `NC(=O)C(Cc1c(O)c(Br)cc2ccccc12)C(=O)c1cccc(Br)c1` (stereo not drawn) [Compound 31, 2-[(3-Bromo-2-hydroxynaphthalen-1-yl)methyl]-3-(3-bromophenyl)-3-oxopropanamide] were, in that order, 0% and 37%.
For `NC(=O)C(Cc1c(O)ccc2ccc(Br)cc12)C(=O)c1cccc(Br)c1` (stereo not drawn) [Compound 32, 2-[(7-Bromo-2-hydroxynaphthalen-1-yl)methyl]-3-(3-bromophenyl)-3-oxopropanamide] the same measures were 0% and 16%.
For `O=C(NCCO)C(Cc1c(O)ccc2cc(Br)ccc12)C(=O)c1cccc(Br)c1` (stereo not drawn) [Compound 36, 2-[(6-Bromo-2-hydroxynaphthalen-1-yl)methyl]-3-(3-bromophenyl)-N-(2-hydroxyethyl)-3-oxopropanamide], the inhibition at 50 µM on SIRT1 is 0%; at SIRT3, 43%; on SIRT2, 94%. The molecule further displayed a concentration for half-maximal inhibition (IC50) against SIRT2 of 4.75 µM.
With `O=C(c1cccc(Br)c1)C(Cc1c(O)ccc2cc(Br)ccc12)C(=O)N1CCOCC1` (stereo not drawn) [Compound 38, 2-[(6-Bromo-2-hydroxynaphthalen-1-yl)methyl]-1-(3-bromophenyl)-3-(morpholin-4-yl)propane-1,3-dione], the inhibition at 50 µM on SIRT1 turned out to be 1%; on SIRT2, 22%.
The like results for `COCCNC(=O)C(Cc1c(O)ccc2cc(Br)ccc12)C(=O)c1cccc(Br)c1` (stereo not drawn) [Compound 41, 2-[(6-Bromo-2-hydroxynaphthalen-1-yl)methyl]-3-(3-bromophenyl)-N-(2-methoxyethyl)-3-oxopropanamide] were, in that order, 0% and 53%.
For `O=C(NCc1cccnc1)C(Cc1c(O)ccc2cc(Br)ccc12)C(=O)c1cccc(Br)c1` (stereo not drawn) [Compound 42] the same measures were 3% and 6%.
Consider `CNC(=O)CCNC(=O)C(Cc1c(O)ccc2cc(Br)ccc12)C(=O)c1cccc(Br)c1` (stereo not drawn) [Compound 44, 2-[(6-Bromo-2-hydroxynaphthalen-1-yl)methyl]-3-(3-bromophenyl)-N-[2-(methylcarbamoyl)ethyl]-3-oxo-propanamide], for which the inhibition at 50 µM at SIRT1 worked out at 0%. Moreover, on SIRT2, the IC50 is 6.5 µM and the inhibition at 50 µM worked out at 98%.
Turning to `CN1CCN(C(=O)C(Cc2c(O)ccc3cc(Br)ccc23)C(=O)c2ccc(C(F)(F)F)cc2)CC1` (stereo not drawn) [Compound 45, 2-[(6-Bromo-2-hydroxynaphthalen-1-yl)methyl]-1-(4-methylpiperazin-1-yl)-3-[4-(trifluoromethyl)phenyl]-propane-1,3-dione], the inhibition at 50 µM at SIRT1 is 10%; at SIRT2 it was 88%.

A word on the IC50: it is the concentration that inhibits the measured activity by half. A lower IC50 goes with higher potency. By inhibition is commonly meant how much of the control response was suppressed.
